For this experiment, the system named is BDF1 mice, P388 leukemia ip, median survival T/C. Nature of the experiment: NCI In Vivo Anticancer Drug Screen. Data for tumor model P388 Leukemia (intraperitoneal) in B6D2F1 (BDF1) mice. Conditions: endpoint: median survival time, higher = longer survival. The essentials: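 Steps: implant the tumour, treat one group with compound and another with vehicle, record survival, then divide treated by control.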

[1] abbreviates: dose: 6.25 mg/kg/injection, schedule: Q01DX009 (ip), vehicle: saline.
The mark [2] stands for this setting: dose: 12.5 mg/kg/injection, schedule: Q01DX009 (ip), vehicle: saline.
[3] abbreviates: dose: 12.5 mg/kg/injection, schedule: Q04DX003 (ip), vehicle: saline.
[4] abbreviates: dose: 25.0 mg/kg/injection, schedule: Q01DX009 (ip), vehicle: saline.
[5] abbreviates: dose: 25.0 mg/kg/injection, schedule: Q04DX003 (ip), vehicle: Klucel (hydroxypropylcellulose) (HPC).
[6] abbreviates: dose: 25.0 mg/kg/injection, schedule: Q04DX003 (ip), vehicle: saline.
Where [7] appears, read: dose: 50.0 mg/kg/injection, schedule: Q01DX009 (ip), vehicle: saline.
[8] abbreviates: dose: 50.0 mg/kg/injection, schedule: Q04DX003 (ip), vehicle: Klucel (hydroxypropylcellulose) (HPC).
Where [9] appears, read: dose: 50.0 mg/kg/injection, schedule: Q04DX003 (ip), vehicle: saline.
[10] abbreviates: dose: 100.0 mg/kg/injection, schedule: Q04DX003 (ip), vehicle: Klucel (hydroxypropylcellulose) (HPC).
Setting [11] is: dose: 100.0 mg/kg/injection, schedule: Q04DX003 (ip), vehicle: saline.
Where [12] appears, read: dose: 200.0 mg/kg/injection, schedule: Q04DX003 (ip), vehicle: Klucel (hydroxypropylcellulose) (HPC).
Where [13] appears, read: dose: 400.0 mg/kg/injection, schedule: Q04DX003 (ip), vehicle: Klucel (hydroxypropylcellulose) (HPC).
Setting [14] is: dose: 50.0 mg/kg/injection, schedule: Q01DX009 (ip), vehicle: saline with Tween-80.
Setting [15] is: dose: 100.0 mg/kg/injection, schedule: Q01DX009 (ip), vehicle: saline with Tween-80.
The mark [16] stands for this setting: dose: 200.0 mg/kg/injection, schedule: Q01DX009 (ip), vehicle: saline with Tween-80.
Where [17] appears, read: dose: 50.0 mg/kg/injection, schedule: Q04DX003 (ip), vehicle: saline with Tween-80.
[18] abbreviates: dose: 75.0 mg/kg/injection, schedule: Q01DX009 (ip), vehicle: saline with Tween-80.

Where “and” joins values, the source holds several entries; their conditions need not be identical. Equal values may be shown once. Toxic doses and inconclusive results are not listed.

Take `Cc1nn(-c2ccccc2)c(N)c1C#N`: the T/C was 111 % of control under setting [1]; 94 % of control under setting [2]; 98 % of control under setting [3]; 102 % of control under setting [4]; 98 % of control under setting [5]; 163 % of control under setting [6]. In addition, the T/C is 111 % of control under setting [7]; 98 % of control under setting [8]; 86 % of control under setting [9]; 96 % of control (dose: 100.0 mg/kg/injection, schedule: Q01DX009 (ip), vehicle: saline); 121 % of control under setting [10]; 87 % of control under setting [11]. Also, the T/C was 111 % of control (dose: 200.0 mg/kg/injection, schedule: Q01DX009 (ip), vehicle: saline); 113 % of control under setting [12]; 269 % of control (dose: 200.0 mg/kg/injection, schedule: Q04DX003 (ip), vehicle: saline); 105 % of control (dose: 400.0 mg/kg/injection, schedule: Q01DX009 (ip), vehicle: saline); 102 % of control under setting [13].

In the case of `O=C1CCCCCCC1Cc1cc(O)c(CC2CCCCCCC2=O)cc1O` (stereo unspecified), the T/C is 90 % of control under setting [14], 91 % of control under setting [15] and 86 % of control under setting [16].

In the case of `Cc1cc([N+](=O)[O-])cc(C)c1OC(=O)c1ccc(N=C(N)N)cc1`, the T/C runs as follows: under setting [1], 93 % of control; under setting [2], 101 % of control; under setting [3], 104 % of control; under setting [4], 97 % of control; under setting [6], 102 % of control; under setting [7], 95 % of control. Also, the T/C is 101 % of control under setting [9] and 95 % of control under setting [11].

Regarding `CCOC(=O)C(Cc1ccc(N(CCCl)CCCl)cc1)NP1(=O)NCCCO1` (stereo unspecified), the T/C was 153 % of control (dose: 6.25 mg/kg/injection, schedule: Q01DX009 (ip), vehicle: Klucel (hydroxypropylcellulose) (HPC)); 169 % of control (dose: 9.0 mg/kg/injection, schedule: Q04DX003 (ip), vehicle: Klucel (hydroxypropylcellulose) (HPC)); 154 % of control (dose: 9.5 mg/kg/injection, schedule: Q04DX003 (ip), vehicle: Klucel (hydroxypropylcellulose) (HPC)); 209 % of control (dose: 12.0 mg/kg/injection, schedule: Q04DX003 (ip), vehicle: Klucel (hydroxypropylcellulose) (HPC)); 230 % of control (dose: 12.5 mg/kg/injection, schedule: Q01DX009 (ip), vehicle: Klucel (hydroxypropylcellulose) (HPC)); 166 % of control (dose: 14.5 mg/kg/injection, schedule: Q04DX003 (ip), vehicle: Klucel (hydroxypropylcellulose) (HPC)). Also, the T/C was 166 % of control (dose: 22.0 mg/kg/injection, schedule: Q04DX003 (ip), vehicle: Klucel (hydroxypropylcellulose) (HPC)); 230 % of control (dose: 25.0 mg/kg/injection, schedule: Q01DX009 (ip), vehicle: Klucel (hydroxypropylcellulose) (HPC)); 272 % of control under setting [5]; 250 % of control and 212 % of control (dose: 33.0 mg/kg/injection, schedule: Q04DX003 (ip), vehicle: Klucel (hydroxypropylcellulose) (HPC)); 250 % of control and 181 % of control under setting [8]; 91 % of control (dose: 75.0 mg/kg/injection, schedule: Q04DX003 (ip), vehicle: Klucel (hydroxypropylcellulose) (HPC)).

In the case of `CCCCCCCCCCCCCCCCNCCO`, the T/C is 110 % of control (dose: 50.0 mg/kg/injection, schedule: Q01DX009 (ip), vehicle: Klucel (hydroxypropylcellulose) (HPC)) and 112 % of control (dose: 100.0 mg/kg/injection, schedule: Q01DX009 (ip), vehicle: Klucel (hydroxypropylcellulose) (HPC)).

Turning to `CC1(c2cccs2)C(=O)NC(=O)N1C(=O)CCl` (stereo unspecified), the T/C is 101 % of control (dose: 12.5 mg/kg/injection, schedule: Q01DX009 (ip), vehicle: saline with Tween-80); 88 % of control (dose: 25.0 mg/kg/injection, schedule: Q01DX009 (ip), vehicle: saline with Tween-80); 105 % of control under setting [14]; 104 % of control under setting [17]; 90 % of control under setting [18]; 106 % of control under setting [15]. Besides, the T/C (dose: 100.0 mg/kg/injection, schedule: Q04DX003 (ip), vehicle: saline with Tween-80) was 94 % of control; the T/C (dose: 150.0 mg/kg/injection, schedule: Q01DX009 (ip), vehicle: saline with Tween-80) is 105 % of control; the T/C (dose: 200.0 mg/kg/injection, schedule: Q04DX003 (ip), vehicle: saline with Tween-80) was 97 % of control.

`Cc1cc(C)c(C)c(Br)c1C`: the T/C is, setting by setting: under setting [10], 95 % of control; under setting [12], 100 % of control; under setting [13], 100 % of control.

Regarding `CN(C)N=Nc1ccccc1C(N)=O`, the T/C was 111 % of control (dose: 22.0 mg/kg/injection, schedule: Q01DX009 (ip), vehicle: saline with Tween-80); 104 % of control (dose: 26.6 mg/kg/injection, schedule: Q01DX009 (ip), vehicle: saline with Tween-80); 100 % of control (dose: 33.0 mg/kg/injection, schedule: Q01DX009 (ip), vehicle: saline with Tween-80); 91 % of control (dose: 40.0 mg/kg/injection, schedule: Q01DX009 (ip), vehicle: saline with Tween-80); 111 % of control under setting [14]; 120 % of control (dose: 60.0 mg/kg/injection, schedule: Q01DX009 (ip), vehicle: saline with Tween-80). Further, the T/C under setting [18] was 161 % of control.

Consider `CC1CN(C(=O)Nc2ccc(Cl)cc2)CC(C)O1` (stereo unspecified), for which the T/C is, setting by setting: (dose: 75.0 mg/kg/injection, schedule: Q01DX009 (ip), vehicle: Klucel (hydroxypropylcellulose) (HPC)) 110 % of control; (dose: 150.0 mg/kg/injection, schedule: Q01DX009 (ip), vehicle: Klucel (hydroxypropylcellulose) (HPC)) 110 % of control; (dose: 300.0 mg/kg/injection, schedule: Q01DX009 (ip), vehicle: Klucel (hydroxypropylcellulose) (HPC)) 120 % of control.

Regarding `C=CN1C(=O)NC(C)(CC(C)C)C1=O` (stereo unspecified), the T/C was 93 % of control under setting [15]; 104 % of control under setting [16]; 104 % of control (dose: 400.0 mg/kg/injection, schedule: Q01DX009 (ip), vehicle: saline with Tween-80).

On to `CC[N+](CC)(CC)CCCCCC[N+](CC)(CC)CC`, for which the T/C is, setting by setting: (dose: 1.0 mg/kg/injection, schedule: Q01DX009 (ip), vehicle: water) 100 % of control; (dose: 2.0 mg/kg/injection, schedule: Q01DX009 (ip), vehicle: water) 104 % of control; (dose: 2.0 mg/kg/injection, schedule: Q04DX003 (ip), vehicle: water) 102 % of control and 103 % of control; (dose: 4.0 mg/kg/injection, schedule: Q01DX009 (ip), vehicle: water) 97 % of control; (dose: 4.0 mg/kg/injection, schedule: Q04DX003 (ip), vehicle: water) 116 % of control; (dose: 6.0 mg/kg/injection, schedule: Q04DX003 (ip), vehicle: water) 102 % of control. Further, the T/C is 123 % of control (dose: 6.25 mg/kg/injection, schedule: Q04DX003 (ip), vehicle: water); 104 % of control (dose: 8.0 mg/kg/injection, schedule: Q01DX009 (ip), vehicle: water); 100 % of control (dose: 8.0 mg/kg/injection, schedule: Q04DX003 (ip), vehicle: water).

Take `OCC1OC(c2ccc(OCc3ccccc3)cc2OCc2ccccc2)C(O)C1O` (stereo unspecified): the T/C was 105 % of control under setting [14], 92 % of control under setting [15] and 92 % of control under setting [16].

For the compound `C[n+]1c(-c2ccccc2)c2cc(N)ccc2c2ccc(N)cc21`, the T/C runs as follows: (dose: 25.0 mg/kg/injection, schedule: Q04DX003 (ip), vehicle: saline with Tween-80) 171 % of control; under setting [17], 90 % of control.

These data come from PubChem BioAssay AID328 (DTP/NCI, 2004).
